According to US7888464B2, “Hepatitis C virus inhibitors” (Bristol-Myers Squibb Company, priority 2006, dated 2011):

Key:
Assay type in all cases: biochemical
[1] = biological target: T1, HCV NS3/4A protease complex, J4L6S strain (1b genotype) (Hepatitis C virus genotype 1b, UniProt O92972, C1454S/C1711G); test: FRET peptide assay to monitor HCV NS3/4A proteolytic activity (J4L6S strain); details: read-out: IC50 against NS3/4A J4L6S strain
T1 construct: DNA encoding the recombinant HCV NS3/4A protease complex (amino acids 1027 to 1711) for these strains; made in house; host or cells: Escherichia coli BL21 (DE3), pET21b
From the text: HCV NS3 protease complexes, derived from the BMS strain, H77 strain or J4L6S strain, were generated, as described below. These purified recombinant proteins were generated for use in a homogeneous assay (see below) to provide an indication of how effective compounds of the present disclosure would be in inhibiting HCV NS3 proteolytic activity.
Serum from an HCV-infected patient was obtained from Dr. T. Wright, San Francisco Hospital. An engineered full-length cDNA (compliment deoxyribonucleic acid) template of the HCV genome (BMS strain) was constructed from DNA fragments obtained by reverse transcription-PCR(RT-PCR) of serum RNA (ribonucleic acid) and using primers selected on the basis of homology between other genotype la strains. From the determination of the entire genome sequence, a genotype la was assigned to the HCV isolate according to the classification of Simmonds et al. (See P Simmonds, K A Rose, S Graham, S W Chan, F McOmish, B C Dow, E A Follett, P L Yap and H Marsden, J. Clin. Microbiol., 31(6), 1493-1503 (1993)). […]

[2] = tested on: human pancreatic chymotrypsin; test: Specificity assay, chymotrypsin; details: read-out: Chymotrypsin activity in the specificity assays
Description: (§1) The specificities of compounds of the present disclosure were determined against a variety of serine proteases: human neutrophil elastase (HNE), porcine pancreatic elastase (PPE) and human pancreatic chymotrypsin and one cysteine protease: human liver cathepsin B. In all cases a 96-well plate format protocol using a fluorometric Amino-Methyl-Coumarin (AMC) substrate specific for each enzyme was used as described previously (PCT Patent Application No. WO 00/09543) with some modifications to the serine protease assays. All enzymes were purchased from Sigma, EMDbiosciences while the substrates were from Bachem, Sigma and EMDbiosciences.
(§2) Compound concentrations varied from 100 to 0.4 μM depending on their potency. The enzyme assays were each initiated by addition of substrate to enzyme-inhibitor pre-incubated for 10 min at room temperature and hydrolysis to 15% conversion as measured on cytofluor.
50 mM Tris(hydroxymethyl)aminomethane hydrochloride (Tris-HCl) pH 8, 0.5 M Sodium Sulfate (Na2SO4), 50 mM NaCl, 0.1 mM EDTA, 3% DMSO, 0.01% Tween-20 with 5 μM LLVY-AMC and 1 nM Chymotrypsin.
(§3) The percentage of inhibition was calculated using the formula: [1−((UVinh−UVblank)/(UVctl−UVblank))]×100
(§4) A non-linear curve fit was applied to the inhibition-concentration data, and the 50% effective concentration (IC50) was calculated by the use of Excel XLfit software.

human liver cathepsin B = biological target: T2, human liver cathepsin B (Homo sapiens, UniProt P07858); test: Specificity assay, cathepsin B; details: read-out: Cathepsin B activity in the specificity assays
T2 construct: purchased Sigma, EMDbiosciences; host or cells: human liver
Description: as §1, §2
100 mM NaOAC (Sodium Acetate) pH 5.5, 3% DMSO, 1 mM TCEP (Tris(2-carboxyethyl)phosphine hydrochloride), 5 nM Cathepsin B (enzyme stock activated in buffer containing 20 mM TCEP before use), and 2 μM Z-FR-AMC diluted in H2O.
as §3, §4

T1 sequence (O92972 1027-1711 C1454S/C1711G, one chain of several): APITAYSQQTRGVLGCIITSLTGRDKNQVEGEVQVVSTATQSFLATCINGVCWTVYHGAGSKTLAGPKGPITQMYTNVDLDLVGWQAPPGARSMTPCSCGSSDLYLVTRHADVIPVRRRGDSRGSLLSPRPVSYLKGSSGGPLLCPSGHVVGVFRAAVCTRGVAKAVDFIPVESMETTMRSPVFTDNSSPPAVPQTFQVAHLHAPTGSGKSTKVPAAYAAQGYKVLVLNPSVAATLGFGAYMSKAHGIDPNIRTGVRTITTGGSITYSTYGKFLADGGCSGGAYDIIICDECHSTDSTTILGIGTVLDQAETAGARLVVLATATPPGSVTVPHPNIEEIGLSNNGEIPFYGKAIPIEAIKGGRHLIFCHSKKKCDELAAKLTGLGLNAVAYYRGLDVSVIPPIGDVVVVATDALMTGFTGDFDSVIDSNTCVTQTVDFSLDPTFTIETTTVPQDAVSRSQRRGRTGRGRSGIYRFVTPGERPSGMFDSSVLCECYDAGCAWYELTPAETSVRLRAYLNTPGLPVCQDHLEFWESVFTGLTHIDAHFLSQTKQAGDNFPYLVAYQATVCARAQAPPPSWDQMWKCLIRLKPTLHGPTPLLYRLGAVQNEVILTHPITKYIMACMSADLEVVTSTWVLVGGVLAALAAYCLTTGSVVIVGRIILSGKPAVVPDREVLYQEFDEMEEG

C=C[C@@H]1C[C@]1(NC(=O)[C@@H]1C[C@@](O)(c2ccc(-c3ccccc3)cc2)CN1C(=O)[C@@H](NC(=O)OC(C)(C)C)C(C)(C)C)C(=O)NS(=O)(=O)C1CC1 [Compound 3]
IC50 [1]: 0.0011 µM | IC50 [2]: 75 µM | IC50 (human liver cathepsin B): > 100 µM
